Results from patent US4464354A, “(3,4-c)-Pyrido psoralens, process of preparation, application in cosmetology and therapeutics, and cosmetological and pharmaceutical composition with them” (Institut National de la Sante et de la Recherche Medicale, priority 1982, dated 1984).
“Also recorded” adds a separate entry of the source.

How the values were obtained:
[1] = mutagenicity (general statements)
synthesis of RNA = test: photosensitizer effect on RNA synthesis in human fibroblasts; format: cell-based; details: UVA 365 nm
Source text: (§1) (F. Bordin, F. Baccichetti and L. Musajo, Experientia 28, 148 (1972)).
(§2) The cells cultivated in Petri dishes having a minimum Eagle medium with 10% embryonic calf serum were marked by precursors which were specific to the exponential phase of growth. The rates of synthesis were estimated by measuring the incorporation of the radioactive precursors in the acid-precipitable material (see S. Nocentini, Biochim. Biophys., Acta 521, 160 (1978)).

normal human skin = test: erythema test on normal human skin (forearm); format: in vivo
Description: The clinical and therapeutic activity of compounds 1a and 1b has been also measured on human skin. 10 mg of compounds 1a and 1b were diluted in 2 g of a purified lanolin commercially available under the name ROC hydrocerine which was made liquid by heating to 60° C. This local preparation was first tested on normal human skin (of the forearm). An amount of 10 micrograms/cm2 of products 1a and 1b was applied to a circular cutaneous surface 3 cm in diameter. The two products were left on the skin for 2 hours to insure a sufficient cutaneous penetration. […] The same experiment was repeated a second time with irradiation of 20 J/cm2 through a glass plate in order to filter out all the ultraviolet B radiation. […] This erythema, slightly apparent, continued for 18 days. […] The […] result of the reflective photoplethysmograph were totally identical for products 1a and 1b. […] The […] only appeared in doses of irradiation where are twice that customarily used in a therapeutic treatment.

DNA [2] = test: thermal denaturation-renaturation of DNA modified in the presence of UVA; format: biochemical
Source text: Experiments of thermal denaturation-renaturation carried out on the DNA Modified by the compound 1a in the presence of UVA (incident dose ranging up to 27 Kj/m2) yielding values of the non-renaturating fraction of 100%.

[3] = test system: Saccharomyces cerevisiae yeast; test: induction of forward mutations (resistance to canavanine); format: cell-based
Description: This photobiological activity has in effect been defined by the induction of lethal effects, the induction of "small colony" cytoplasmic mutations (damage in the mitochondrial DNA) and the induction of nuclear mutations (reverse and forward). The experiments were conducted in the customary manner in conformity with the following references: […]

synthesis of DNA = test: photosensitizer effect on DNA synthesis in human fibroblasts; format: cell-based; details: UVA 365 nm
Source text: as §1, §2

[4] = test system: DNA of cells of the wild type; test: direct biochemical verification of cross-linking in DNA of cells treated and irradiated at 365 nm; format: cell-based, yeast
Source text: Indeed, DNA of cells of the wild type were extracted immediately after treatment with products 1a, 1b at a concentration of 10^-5 M and irradiation with two doses of radiation at 365 nm (30% and 5% survival rate). […] If the DNA contains cross-links it renatures itself and is found in the double chain form separable by gradient density from single chain DNA.

[5] = test system: V79 chinese hamster cells; test: antiproliferatory effect: inhibition of colony formation of V79 cells; format: cell-based; details: 5×10^-6 M
Description: The photobiological activity of the two monofunctional componds 1a and 1b have been studied in mammalian cells in vitro in order to determine their antiproliferatory effect.
A diploid strain of V79 chinese hamster cells were used.
The action of the compounds on cell survival (i.e. the antiproliferatory effect) was determined by measuring their power to inhibit the capacity of cells to form colonies. The technique used is that described by C.

[6] = spectroscopic absorption properties; format: physicochemical; details: compared with psoralen
Source text: Compounds 1a and 1b have similar spectroscopic properties which differ markedly with respect to those of psoralen.

DNA [7] = test: complexation with DNA by absorption and emission spectroscopy; format: binding
normal skin = test: pigmentogenic properties on normal skin; format: in vivo, human; details: 0.5%
Source text: The pigmentogenic properties of products 1a and 1b have been tested on normal skin at a concentration of 0.5%.

[8] = test system: Saccharomyces cerevisiae yeast; test: induction of lethal effects in yeast with 365 nm irradiation (UVA); format: cell-based
Description: (§3) This photobiological activity has in effect been defined by the induction of lethal effects, the induction of "small colony" cytoplasmic mutations (damage in the mitochondrial DNA) and the induction of nuclear mutations (reverse and forward). The experiments were conducted in the customary manner in conformity with the following references:
Thus, the dose of UVA must be between 2.5 and 5 times weaker in the case of compounds 1a and 1b than in the case of 8-MOP to attain the same survival rate.

yeast mutant pso2 = test: sensitivity of yeast mutant pso2 versus wild type to photo-addition
[9] = test system: haploid strain of Saccharomyces cerevisiae yeast; test: induction of nuclear mutations: His+ reversions; format: cell-based; details: 5×10^-6 M, same survivor rate
Description: as §3
The induction of nuclear mutations (reversions and "forward" mutations) has been determined according to procedures described in the above-mentioned articles.

[10] = photochemical stability under ultraviolet irradiation; format: physicochemical; details: free in solution, ultraviolet irradiation up to an incident dose of 27 kJ/m2
psoriatic plaque = test: therapeutic test on psoriatic plaque, products 1a and 1b; format: in vivo, human
Description: 10 mg of compounds 1a and 1b were diluted in 2 g of a purified lanolin commercially available under the name ROC hydrocerine which was made liquid by heating to 60° C. Products 1a and 1b have also been tested in the same excipient on a high inflammatory psoriatic plaque. These two products were applied to surfaces having a 3 cm diameter. On a third surface the excipient alone was applied. […] The products and the lanolin alone were applied 2 hours before irradiation. […] This whitening was practically as fast in the zones treated with products 1a and 1b. The zone treated with lanolin alone remained unchanged.

DNA [11] = test: formation of cross-links in DNA (general statements); format: biochemical; details: from induction of cytoplasmic and nuclear mutations
mitochondrial DNA = test: induction of "small colony" cytoplasmic mutations; format: cell-based, Saccharomyces cerevisiae; details: in 10% of the survivors
Description: as §3
If the induction of cytoplasmic mutations is considered as a function of the survivors, the compounds 1a and 1b which are monofunctional derivatives of psoralen, show in 10% of the survivors a rate of induction of cytoplasmic mutation greater than 50%.

DNA [12] = test: photoaffinity for DNA in vivo; format: cell-based, yeast
[13] = 10 micrograms/cm2, UVA 20 J/cm2
[14] = 30 micrograms/cm2, by the tenth treatment
[15] = 30 micrograms/cm2, from the fourth treatment

## O=c1oc2cc3occc3cc2c2ccncc12 [Compound 1a, Pyrido (3,4-c) furo (3,2-g) coumarin]
[1]
  mutagenicity compared with 3-carbethoxypsoralen (conclusion): less mutagenic than 3-carbethoxypsoralen
Synthesis of RNA
  inhibition capacity (RNA) compared with 3-CPs: much more than 3-CPs
  inhibition capacity (RNA) compared with 8-MOP: slightly more powerful than 8-MOP
Normal human skin; 10 micrograms/cm2, 2 hours before UVA 5 J/cm2
  erythema at 5 J/cm2: no precocious or delayed erythema was observed
Normal human skin; [13]
  duration of erythema: 18 days
  time of appearance of erythema: 72 h
Normal human skin; 10 micrograms/cm2, UVA 20 J/cm2 through glass plate
  erythema at 20 J/cm2: slight erythema
Normal human skin; UVA 20 J/cm2
  desquamation or local pain: no desquamation or local pain
  systolic pulse of the capillaries at erythematic zones (reflective photoplethysmography): doubling of the systolic pulse
Normal human skin; in vivo
  erythematogenicity (conclusion): not erythmatogenic in conditions of irradiation customarily used in human therapy; also recorded: very mildly erythmatogenic
DNA [2]
  induction of biadditions on the DNA: cannot induce biadditions on the DNA
DNA [2]; UVA incident dose ranging up to 27 kJ/m2
  non-renaturating fraction: 100%
[3]
  forward mutations as a function of surviving fractions compared with 3-CPs, 8-MOP and 4,5',8-TMeP: markedly less mutagenic than 3-CPs and the bifunctional compounds 8-MOP and 4,5', 8-TMeP
[3]; 5×10^-6 M versus 3-CPs at 5×10^-5 M
  forward mutations as a function of UVA doses compared with 3-CPs: comparable to those obtained with 3-CPs at 5×10^-5 M
Synthesis of DNA
  inhibition capacity (DNA) compared with 3-CPs: much more than 3-CPs
  inhibition capacity (DNA) compared with 8-MOP: slightly more powerful than 8-MOP
[4]; 10^-5 M, 365 nm, two doses (30% and 5% survival rate)
  form of DNA after renaturation (cross-links): remains in single chain form after renaturation
[4]; pso2 mutant and direct examination of DNA
  functional type (mono/bifunctional): mono functional type
[5]; UVA
  LD10 (dose which leaves 10% survive): 1800 J/cm2
  considerable photosensitivity in V79 cells: considerable photosensitivity
  relative antiproliferatory effect: compared to 8-MOP, a higher antiproliferatory effect; also recorded: comparable to that of bifunctional furocoumarins
[5]; no radiation
  diminution of cell survival in absence of radiation: no diminution of cell survival
[6]
  coefficient of molecular absorption at 365 nm: notably a higher coefficient of molecular absorption at 365 nm
DNA [7]
  complexation with DNA: considerable complexation
  solubility in the DNA relative to mixture of alcohol and water: at least 10 factor
Normal skin
  pigmentogenic properties, 1b versus 1a: pigmentogenic
Normal skin; three normal patients, total UVA doses of 140 J/cm2
  pigmentation of normal skin: very slight pigmentation, hardly visible, in only two of the three patients
[8]
  photoreactivity compared with 4,5',8-trimethylpsoralen (conclusion): close to that of 4,5'-8-trimethylpsoralen
[8]; 5×10^-5 M, 365 nm (UVA)
  induction of lethal effects compared with 8-MOP: activity close to that of 8-methoxypsoralen
[8]; 5×10^-6 M, survival curves
  activity on cell survival relative to 8-MOP: 2.5 times
[8]; yeast
  photodynamic activity (oxygen dependent) on induction of lethal damages: do not exert on the yeast photodynamic activity
Yeast mutant pso2
  photoreactivity on yeast strains: very photoreactive
Yeast mutant pso2; photo-addition
  sensitivity of pso2 mutant compared with wild type: same sensitivity as the wild type
[9]
  His+ reversions rate compared with 3-CPs: less than that observed after the treatment with 3-CPs
  His+ reversions rate compared with 8-MOP and 4,5',8-TMeP: very much less than that observed after treatment with the bifunctional agents 8-MOP and 4,5', 8-TMeP
[10]
  photochemical stability: good photochemical stability
Psoriatic plaque; 30 μg/cm2 two hours before UVA
  antipsoriatic action, third patient: did not have a detectable antipsoriatic action
Psoriatic plaque; 30 micrograms/cm2
  erythema or secondary effect during treatments: no erythema or secondary effect was observed
  hyperpigmentation: hyperpigmentation was found
Psoriatic plaque; [14]
  total UVA dose to complete whitening: 50 J/cm2
  whitening of treated zones: complete whitening of the zones treated
Psoriatic plaque; [15]
  decrease of squamae: slight decrease of the squamae
  reduction of infiltration: tangible reduction of the infiltration
Psoriatic plaque; applied locally
  antipsoriatic activity (conclusion): good antipsoriatic activity
DNA [11]
  formation of cross-links in the DNA (conclusion): incapable of forming cross-links in the DNA
Mitochondrial DNA
  rate of induction of cytoplasmic mutation: greater than 50%
DNA [12]
  photoaffinity for DNA in vivo compared with 3-CPs: makedly much high than that of monofunctional furocoumarin 3-CPs
  photoaffinity for DNA in vivo relative to 8-MOP: about 10 times
  photoaffinity in respect to DNA compared with 8-MOP (conclusion): markedly greater than that of 8-MOP
